# Experimental data from patent publication US5536497A, “Fimbrial polypeptides useful in the prevention of periodontitis” (priority 1992, dated 1996).
# Where two headings read alike, the source gives them in different places. Square brackets hold non-standard residues; d marks the D form. Peptide text beside a SMILES is read from it. * marks the point of attachment. Sta = CC(C)C[C@H](N)[C@@H](O)CC(=O)O; Isovaleryl = CC(C)CC(=O)*
# Tested on: P. gingivalis 2561 binding to sHAP beads
# Test: microbe, parasite or virus in culture
# Format: cell-based, Porphyromonas gingivalis
# [1] = Table 2, amount 0.1 mg, minus = enhancement of binding
Molecule,Inhibition (%) [1] [%],also measured
"c1cnc2c(c1)ccc1cccnc12 [1,10-Phenanthroline]",–,inhibition at 1000 µM (Porphyromonas gingivalis): -8%
O=C[C@H](O)[C@@H](O)[C@@H](O)[C@H](O)C(=O)O [D-Galacturonic acid],21,–
O=C[C@H](O)[C@@H](O)[C@H](O)[C@H](O)C(=O)O [D-Glucuronic acid],33,–
O=C(O)CN(CCN(CC(=O)O)CC(=O)O)CC(=O)O [EDTA],–,Inhibition (%): 24
C[C@H](O)[C@@H](O)[C@@H](O)[C@H](O)C=O [Fucose],1,–
N[C@H]1C(O)O[C@H](CO)[C@H](O)[C@@H]1O (some centres unmarked) [Galactosamine],8,–
O=C[C@H](O)[C@@H](O)[C@@H](O)[C@H](O)CO [Galactose],-7,–
N[C@H]1C(O)O[C@H](CO)[C@@H](O)[C@@H]1O (some centres unmarked) [Glucosamine],0,–
O=C[C@H](O)[C@@H](O)[C@H](O)[C@H](O)CO [Glucose],-10,–
N=C(N)NCCC[C@H](N)C(=O)O [L-Arginine],0,–
NCCCC[C@H](N)C(=O)O [L-Lysine],5,–
OC[C@H]1O[C@@H](O[C@H]2[C@H](O)[C@@H](O)C(O)O[C@@H]2CO)[C@H](O)[C@@H](O)[C@H]1O (some centres unmarked) [Lactose],-1,–
CC(=O)N[C@@H](CC(C)C)C(=O)N[C@@H](CC(C)C)C(=O)N[C@H](C=O)CCCNC(=N)N [Leupeptin],–,inhibition at 2 µM (Porphyromonas gingivalis): 19%
OC[C@H]1O[C@H](O[C@H]2[C@H](O)[C@@H](O)[C@H](O)O[C@@H]2CO)[C@H](O)[C@@H](O)[C@@H]1O [Maltose],-8,–
O=C[C@@H](O)[C@@H](O)[C@H](O)[C@H](O)CO [Mannose],-15,–
CC(=O)N[C@H]1C(O)O[C@H](CO)[C@H](O)[C@@H]1O (some centres unmarked) [N-Acetylgalactosamine],-5,–
CC(=O)N[C@H]1C(O)O[C@H](CO)[C@@H](O)[C@@H]1O (some centres unmarked) [N-Acetylglucosamine],-15,–
CC(C)CC(=O)N[C@H](C(=O)N[C@H](C(=O)N[C@@H](CC(C)C)[C@@H](O)CC(=O)N[C@@H](C)C(=O)N[C@@H](CC(C)C)[C@@H](O)CC(=O)O)C(C)C)C(C)C [Pepstatin] (Isovaleryl-VV[Sta]A[Sta]-OH),–,inhibition at 1 µM (Porphyromonas gingivalis): -10%
O=S(=O)(F)Cc1ccccc1 [Phenylmethylsulfonyl fluoride],–,"Inhibition (%) (Table 2, conc. 2 mM): 13%"
"CC(=O)N[C@H]1[C@H]([C@H](O)[C@H](O)CO)OC(O)(C(=O)O)C[C@@H]1O (some centres unmarked) [Sialic acid (N-acetyl neuraminic acid), N-acetyl neuraminic acid]",28,–
"Defatted BSA: defatted BSA, agent tested in Table 2",–,"Inhibition (%) (Table 2, amount l mg): 43%"
N-Acetyl neuramin-lactose,2,–
Poly-L-lysine,–,"Inhibition (%) (Table 2, amount 0.25 mg): 41%"
"poly-2,8-N-acetyl neuraminic acid",13,–
"Trypsin, bovine pancreas type XIII-TPCK: trypsin from bovine pancreas, type XIII, TPCK treated (protein, UniProt P00760 24-246, looked up, TPCK treated) Serine protease 1: IVGGYTCGANTVPYQVSLNSGYHFCGGSLINSQWVVSAAHCYKSGIQVRLGEDNINVVEGNEQFISASKSIVHPSYNSNTLNNDIMLIKLKSAASLNSRVASISLPTSCASAGTQCLISGWGNTKSSGTSYPDVLKCLKAPILSDSSCKSAYPGQITSNMFCAGYLEGGKDSCQGDSGGPVVCSGKLQGIVSWGSGCAQKNKPGVYTKVCNYVSWIKQTIASN",–,"Inhibition (%) (Table 2, amount 100 U): 53%; Reduction of P. gingivalis binding after pretreatment of sHAP beads (sHAP beads pretreated with enzyme prior to being mixed with P. gingivalis cells): approximately 50%"
